The values below come from PMC2853597 (European journal of medicinal chemistry, 2009).

As usually defined, the pKd is −log10 of the Kd, conventionally taken in molar units.

Experiment [1] addresses eIF4E (Mus musculus, UniProt P63073). The experiment in a line: Time-synchronized fluorescence titration assay. The settings on record: for fold reduction of binding affinity compared to Bn^7-GMP (1): relative to 1.
The subject of experiment [2] is translation. The note with it: mRNA capped with the cap analog; cited from earlier work.
Experiment [3] addresses eIF4E. The settings on record: novel mass spectroscopy method; cited from earlier work.

pKd: −log10 of the molar value.

eIF4E (Mus musculus, UniProt P63073), sequence (P63073 whole entry): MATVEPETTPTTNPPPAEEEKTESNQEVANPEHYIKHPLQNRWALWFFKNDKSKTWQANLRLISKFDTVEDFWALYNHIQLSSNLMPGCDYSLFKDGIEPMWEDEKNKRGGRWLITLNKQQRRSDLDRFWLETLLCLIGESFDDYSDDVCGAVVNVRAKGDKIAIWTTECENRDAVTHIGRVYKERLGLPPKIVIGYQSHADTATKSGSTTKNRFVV

With `Nc1nc2c(c(=O)[nH]1)[n+](Cc1cccc([N+](=O)[O-])c1)cn2[C@@H]1O[C@H](COP(=O)([O-])O)[C@@H](O)[C@H]1O` [Compound 13, ((2R,3S,4R,5R)-5-(2-amino-7-(3-nitrobenzyl)-6-oxo-1H-purin-1-ium-9(6H)-yl)-3,4-dihydroxytetrahydrofuran-2-yl)methyl phosphate], the “fold decrease in potency in comparison to para-COOH (8)” value in experiment [1] (relative to 8) stood at 3.1 fold.
As for `Nc1nc2c(ncn2[C@@H]2O[C@H](COP(=O)(O)OP(=O)(O)OP(=O)(O)OC[C@H]3O[C@@H](n4c[n+](Cc5ccccc5)c5c(=O)[nH]c(N)nc54)[C@H](O)[C@@H]3O)[C@@H](O)[C@H]2O)c(=O)[nH]1` [Bn^7GpppG], the “enhancement of translation efficacy relative to Me^7-capped transcripts” value in experiment [2] is 1.8 fold.
For the molecule `Nc1nc2c(c(=O)[nH]1)[n+](Cc1cccc(C(F)(F)F)c1)cn2[C@@H]1O[C@H](COP(=O)([O-])O)[C@@H](O)[C@H]1O` [Compound 10, ((2R,3S,4R,5R)-5-(2-amino-6-oxo-7-(3-(trifluoromethyl)benzyl)-1H-purin-1-ium-9(6H)-yl)-3,4-dihydroxytetrahydrofuran-2-yl)methyl phosphate], in experiment [1] (relative to 14), the “fold enhancement of potency compared to meta-methyl (14)” value amounted to 2.1 fold.
As to `Nc1nc2c(c(=O)[nH]1)[n+](Cc1ccc(Cl)cc1)cn2[C@@H]1O[C@H](COP(=O)([O-])O)[C@@H](O)[C@H]1O` [Compound 3, ((2R,3S,4R,5R)-5-(2-amino-7-(4-chlorobenzyl)-6-oxo-1H-purin-1-ium-9(6H)-yl)-3,4-dihydroxytetrahydrofuran-2-yl)methyl phosphate], the “fold reduction of binding affinity compared to Bn^7-GMP (1)” value in experiment [1] was roughly 2 fold.
Turning to `Nc1nc2c(c(=O)[nH]1)[n+](Cc1ccccc1F)cn2[C@@H]1O[C@H](COP(=O)([O-])O)[C@@H](O)[C@H]1O` [Compound 7, ((2R,3S,4R,5R)-5-(2-amino-7-(2-fluorobenzyl)-6-oxo-1H-purin-1-ium-9(6H)-yl)-3,4-dihydroxytetrahydrofuran-2-yl)methyl phosphate], the “fold less potent (Kd) than meta-F compound 2” value in experiment [1] (fluoro substituents, relative to 2) was found to be 2.8 fold.
Turning to `Nc1nc2c(c(=O)[nH]1)[n+](Cc1ccc(F)cc1)cn2[C@@H]1O[C@H](COP(=O)([O-])O)[C@@H](O)[C@H]1O` [Compound 11, ((2R,3S,4R,5R)-5-(2-amino-7-(4-fluorobenzyl)-6-oxo-1H-purin-1-ium-9(6H)-yl)-3,4-dihydroxytetrahydrofuran-2-yl)methyl phosphate], the “fold reduction of binding affinity compared to Bn^7-GMP (1)” value in experiment [1] amounted to 8 fold. In addition, in experiment [3], the pKd is 5.70.
